From patent US9926293B2, “Multivalent RAS binding compounds” (THE TRUSTEES OF COLUMBIA UNIVERSITY IN THE CITY OF NEW YORK, priority 2014, dated 2018)

How the values were obtained:
[1] = In vivo pharmacokinetic analysis; parameters: species or system male C57 adult mice; conditions: male, C57, mouse, 20 mg/kg, plasma over 12 hours
Protocol: In Vivo Pharmacokinetic Analysis
The dose formulation was prepared freshly in the morning of dosing day. A total of 42 male C57 adult mice, each approximately 25 grams in body weight, were administered at 20 mg/kg dose via a single IV bolus injection or a single oral gavage. Blood samples (approximately 400 μL) were collected from three mice per time point via terminal brachial bleed at pre-dose and 30 minutes, 1 hour, 2 hours, 4 hours, 8 hours and 12 hours post-dose. Blood samples were placed into tubes containing K2 EDTA anti-coagulant, and centrifuged at about 2,100 g (rcf) for 10 minutes at 4° C. to separate plasma. Following centrifugation, the resulting plasma was transferred to clean tubes and stored frozen at −80° C. The mouse plasma samples (50 μL) were aliquoted, spiked with internal standard (250 ng/mL tolbutamide), and then extracted with protein precipitation. The supernatant of each sample was diluted and injected into a LC-MS/MS system. The data acquisition and processing were performed using a Sciex API 5500 mass spectrometer with Analyst 1.6.2 software. The standard curve range for the plasma samples was analyzed using a calibration curve of 0.5-5000 ng/mL. The pharmacokinetic (PK) analysis and interpretation of the results were conducted using Winnonlin Phoenix Software.

[2] = test system: Mia-Paca2, NCI-H441, NCI-H23, BJeLR and HT1080 cells; test: Expression of the mutant RAS isoform by qPCR; type: cell-based; conditions: 4 and 24 hours, 10 μM
Source text: Samples were normalized to DMSO treatment.
In addition to altering genes associated with RAS activation, it was hypothesized that upon inhibitor treatment, cells would attempt to compensate by expressing additional RAS proteins.

[3] = test system: HT-1080 cells (NRAS^Q61K) transfected; test: Sensitivity of HT-1080 cells overexpressing KRAS^G12V, PI3K^E545K, BRAF^V600E; type: cell-based; conditions: BRAF^V600E or both, 5 μM, 24 h
Protocol: RAS, PI3K and BRAF Overexpression.
Phoenix-AMPHO (ATCC: CRL-3213) cells were seeded in a 6-well plate at 600,000 cells/well 24 hours prior to use in 10% FBS and 1% PS in DMEM. A solution of lipofectamine 2000 (6 μL) in 100 μL opti-mem media (reduced serum media) and the plasmid (2.5 μg) in 100 μL opti-mem media were combined and incubated 5 minutes at 25° C., then added to 1.8 mL of opti-mem in each well. After 12 hours, the media was replaced with 10% FBS and 1% PS in DMEM. The next day the supernatant was collected three times spaced 4 hours apart and polybrene was added ( 1/1000). The supernatant was filtered (0.45 μm) and added to HT1080 cells seeded at 100,000 cells per well (6-well dish) in 2 mL portions spaced 4 hours apart. After 48 hours, the cells were trypsinized and re-seeded in medium containing puromycin (2 μg/mL). After 6 days of selection the cells were analyzed for expression using the aforementioned qPCR procedure. 2 mL solutions of the inhibitors were added to a 6-well plate of the transfected HT-1080 cells (100,000 cells/well) and treated for 24 hours. The cells were then trypsinized, re-suspended in 1 mL of medium and viability was measured by VI-CELL (Beckman Coulter) through mixing with trypan blue.

[4] = test system: primary T-ALL cells with wild-type NRAS; test: Viability of patient-derived T-ALL samples cultured in vitro, wild-type NRAS; type: cell-based, human; conditions: four samples, 5 μM, 72 hours
Protocol: Primary Cell Co-Culture and In Vitro Cell Viability Assays.
Cells were harvested 72 hours after treatment and analyzed cell viability using the BD cell viability kit with liquid counting beads (BD Bioscience) gating out stroma cells (GFP+), dead cells and particles (PI+). We acquired data using a FACSCanto II flowcytometer (BD Bioscience) and analyzed it using FlowJo software (Tree Star, Inc.). Viability data is represented as % relative to vehicle treatment.

[5] = test system: RAS-RAF and RAS-PI3K interaction in BJeLR cells; test: Immunoprecipitation with HRAS antibody, blot for cRAF and PI3Kgamma; type: cell-based; conditions: 10% FBS
Protocol: BJeLR cells were seeded 16 hours prior to use in 10% FBS in DMEM. […] After 6 hours cells were washed twice with ice cold buffer (25 mM tris, 100 mM NaCl, 1 mM TCEP, 5 mM MgCl2, 0.1% tween-20 and 1 protease inhibitor/25 mL). Cells were scrapped, pelleted at 13,000 rpm for 10 minutes at 4° C., then passed through a 26 gauge needle several times. The solution was spun down a second time at 13,000 rpm for 15 minutes at 4° C., to remove unlysed cells and debris. HRAS antibody (Santa cruz, SC-520) was then added to the lysate (1:100) and the solution was rocked at 4° C. for 16 hours. Protein A agrose beads were then added and the solution was rotated at 4° C. for an additional 6 hours. The solutions were spun down at 1500×g for 2 minutes and the supernatant was removed by syringe. The beads were washed twice by this process with buffer, then resuspended in 2.5×SDS.

[6] = Microsomal stability; type: in vitro ADME; conditions: mouse liver microsomes, 45 minute incubation
Protocol: Test compounds (0.5 μM) were incubated at 37° C. for up to 45 minutes in 50 mM of potassium phosphate buffer (pH 7.4) containing microsomal protein (0.5 mg/mL) and an NADPH generating system (0.34 mg/mL β-nicotinamide adenine dinucleotide phosphate (NADP), 1.56 mg/mL glucose-6-phosphate, 1.2 units/mL glucose-6-phosphate dehydrogenase). At 0, 5, 15, 30 and 45 minute intervals an aliquot was taken and quenched with acetonitrile (ACN) containing an internal standard. No-cofactor controls at 45 minutes were prepared. Following completion of the experimentation, the samples were analyzed by LC-MS/MS using a Shimadzu HPLC and an Applied Biosystem AP 14000.

NC1(C(=O)NCCCn2cc(-c3ccc(OC(F)(F)F)cc3)c3cc(CN4CCN(Cc5c(Cl)cccc5Cl)CC4)ccc32)CCNCC1 [Compound 31MEW44, 4-amino-N-(3-(5-((4-(2,6-dichlorobenzyl)piperazin-1-yl)methyl)-3-(4-(trifluoromethoxy)phenyl)-1H-indol-1-yl)propyl)piperidine-4-carboxamide]
half-life ([1]; intravenous delivery, no elimination): > 12 h | half-life ([1]; oral delivery): 3.1 h | RAS expression [2]: time-dependent increase of RAS expression | resistance on overexpression [3]: resistance was indeed observed in all cases | viability [4]: no observed decrease in viability | co-immunoprecipitated cRAF and PI3K [5]: decreased levels of co-immunoprecipitated cRAF and PI3K | compound remaining [6]: all of 31MEW44 remained
